In patent publication US8404866B2, “Substituted heterocyclic mercaptosulfonamide metalloprotease inhibitors” (Florida State University Research Foundation, priority 2008, dated 2013):
Counter-ions that a name gives are not always drawn.

Experiments:
[1] = target: T1, MMP-2 (HFG; human fibroblast gelatinase) (Homo sapiens, UniProt P08253); test: Enzyme kinetic assay, inhibition of MMP-2; type: biochemical; conditions: read-out: Ki (value in parentheses), HFG MMP-2
T1 sequence (P08253 110-660): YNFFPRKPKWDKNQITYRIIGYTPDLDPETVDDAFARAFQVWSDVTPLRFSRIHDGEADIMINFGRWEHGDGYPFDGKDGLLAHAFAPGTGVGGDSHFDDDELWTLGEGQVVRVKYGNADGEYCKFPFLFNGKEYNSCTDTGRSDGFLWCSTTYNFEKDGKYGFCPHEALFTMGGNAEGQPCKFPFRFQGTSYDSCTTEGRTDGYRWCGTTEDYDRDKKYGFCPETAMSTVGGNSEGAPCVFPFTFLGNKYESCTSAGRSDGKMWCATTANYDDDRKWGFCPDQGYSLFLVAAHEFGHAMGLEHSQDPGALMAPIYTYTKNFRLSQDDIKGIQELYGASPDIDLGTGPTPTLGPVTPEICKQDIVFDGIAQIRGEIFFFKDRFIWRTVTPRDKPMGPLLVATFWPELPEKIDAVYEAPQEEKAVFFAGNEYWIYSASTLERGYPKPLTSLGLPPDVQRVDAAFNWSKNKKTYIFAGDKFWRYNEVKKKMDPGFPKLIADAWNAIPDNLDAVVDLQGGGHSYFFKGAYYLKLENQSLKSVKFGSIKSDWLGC
Description: (§1) The following protocol was used to obtain the data found in the following table. Materials: The fluorescent peptide substrates for matrix metalloproteinases (MMPs) used were purchased from Bachem Chem. Co. The metal salts and Brij-35 were purchased from Fisher Scientific Inc. All other chemicals were purchased from Sigma-Aldrich Chem. Co. The sources and biochemical characterizations of multiple MMPs, including MMP-1/human fibroblast collagenase (HFC), MMP-2/human fibroblast gelatinase (HFG), MMP-8/human neutrophil collagenase (HNC), and MMP-9/human neutrophil gelatinase (HNG), MMP-7/human matrilysin (MLN), MMP-3/human fibroblast stromelysin-1 (HFS), human recombinant catalytic domain of membrane-type 1 matrix metalloproteinase (cdMT1-MMP), catalytic domain of MMP-12/metalloelastase (cdMET), and MMP-26/human endometase (EDM) were described previously (Sang, Q. X., Birkedal-Hansen, H., and Van Wart, H. E. Proteolytic and non-proteolytic activation of human neutrophil progelatinase B. Biochim. Biophys. Acta. 1995; 1251, 99-108; Sang, Q. A., Bodden, M. K., and Windsor, L. J. Activation of human progelatinase A by collagenase and matrilysin: activation of procollagenase by matrilysin. J. Protein. Chem. 1996; 15, 243-253; Li, H., Bauzon, D. E., Xu, X., Tschesche, H., Cao, J., and Sang, Q.-X. A. Immunological characterization of cell-surface and soluble forms of membrane type 1 matrix metalloproteinase in human breast cancer cells and in fibroblasts. Molec. Carcinog. 1998; 22, 84-94; Park, H. I., Ni, J., Gerkema, F. E., Liu, D., Belozerov, V. E., and Sang, Q.-X. A. Identification and characterization of human endometase (Matrix metalloproteinase-26) from endometrial tumor. J. Biol. Chem., 2000; 275, 20540-20544). The active concentrations of MMPs were determined by titration with GM6001, a tight-binding MMP inhibitor, as described previously (Park, H. I., Turk, B. E., Gerkema, F. E., Cantley, L. C., and Sang, Q.-X. A. Peptide substrate specificities and protein cleavage sites of human endometase/matrilysin-2/matrix metalloproteinase-26. J. Biol. Chem. 2002; 277, 35168-35175).
(§2) The active inhibitor concentrations were estimated by titrating the mercapto group with 5,5′-dithiobis(2-nitrobenzoic acid) (DTNB; Ellman's reagent) as described previously (Ellman, G. L. A colorimetric method for determining low concentrations of mercaptans. Arch. Biochem. Biophys. 1958; 74, 443-450; Ellman, G. L. Tissue sulfhydryl groups. Arch. Biochem. Biophys. 1959; 82, 70-77; Riddles, P. W., Blakeley, R. L., and Zerner, B. Ellman's reagent: 5,5′-dithiobis(2-nitrobenzoic acid)—a reexamination. Anal. Biochem. 1979; 94, 75-81). Briefly, the reaction of DTNB with the mercapto group produces 2-nitro-5-thiobenzoic acid (TNB). The concentration of TNB is then measured by monitoring the absorbance at 412 nm. Cysteine was used to generate the standard curve with a molar extinction coefficient of 14,000±500 M^−1 cm^−1, which is close to the value in the literature (Riddles, P. W., Blakeley, R. L., and Zerner, B. Ellman's reagent: 5,5′-dithiobis(2-nitrobenzoic acid)—a reexamination. Anal. Biochem. 1979; 94, 75-81).
(§3) The substrate Mca-PLGLDpaAR-NH2 was used to measure inhibition constants (Knight, C. G., Willenbrock. F., and Murphy, G. A novel coumarin-labelled peptide for sensitive continuous assays of the matrix metalloproteinases. FEBS Lett. 1992; 296, 263-266). Enzymatic assays were performed at 25° C. in 50 mM HEPES buffer at pH 7.5 in the presence of 10 mM CaCl2, 0.2 M NaCl, and 0.01% or 0.05% Brij-35 with substrate concentrations of 1 μM. The release of product was monitored by measuring fluorescence (excitation and emission wavelengths of 328 nm and 393 nm, respectively) with a Perkin Elmer Luminescence Spectrophotometer LS 50B connected to a temperature controlled water bath. All stock solutions of inhibitors were in dimethyl sulfoxide. […]

[2] = target: T2, MMP-7 (MLN; human matrilysin) (Homo sapiens, UniProt P09237); test: Enzyme kinetic assay, inhibition of MMP-7; type: biochemical; conditions: for Ki: read-out: Ki (value in parentheses), MLN MMP-7; for IC50: 25° C., pH 7.5, substrate 1 μM, read-out: IC50 (value without parentheses), MLN MMP-7
T2 sequence (P09237 95-267): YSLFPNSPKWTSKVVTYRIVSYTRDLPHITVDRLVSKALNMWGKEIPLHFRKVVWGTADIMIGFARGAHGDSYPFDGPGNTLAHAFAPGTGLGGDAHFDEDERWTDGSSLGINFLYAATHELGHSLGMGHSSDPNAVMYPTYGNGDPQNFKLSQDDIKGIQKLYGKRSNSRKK
Description: as §1, §2, §3

Row | SMILES | Ki [1] [nM] | Ki [2] [nM] | IC50 [2] [nM]
1 | CC(=O)NCCCCCC(=O)N1C[C@H](NS(=O)(=O)c2ccc(-c3ccccc3)cc2)[C@@H](S)C1 (racemic) [Example 9, (±)-N-(6-Acetamidohexanoyl)-trans-3-(4-phenylbenzene-sulfonamido)-4-mercaptopyrrolidine] | 63 | 2000 | 
2 | CN([C@H]1CN(C(N)=O)C[C@@H]1S)S(=O)(=O)c1ccc(Oc2ccccc2)cc1 (racemic) [Example 4, (±)-N-Carbamoyl-trans-3-(N-methyl-4-phenoxybenzenesulfonamido)-4-mercaptopyrrolidine] | 2.3 |  | > 25000
3 | O=C(OCc1ccccc1)N1C[C@H](NS(=O)(=O)c2ccc(Oc3ccccc3)cc2)[C@@H](S)C1 (racemic) [Example 5, (±)-N-(Benzyloxycarbonyl)-trans-3-(4-phenoxybenzenesulfonamido)-4-mercaptopyrrolidine] | 24 |  | > 50000
4 | NC(=O)N1C[C@H](NS(=O)(=O)c2ccc(Oc3ccccc3)cc2)[C@@H](S)C1 (racemic) [Example 1, (±)-N-Carbamoyl-trans-3-(4-phenoxybenzenesulfonamido)-4-mercaptopyrrolidine] | 3.9 |  | > 25000
5 | NCCCCCC(=O)N1C[C@H](NS(=O)(=O)c2ccc(Oc3ccccc3)cc2)[C@@H](S)C1 (racemic) [Example 7, (±)-N-(6-Aminohexanoyl)-trans-3-(4-phenoxybenzene-sulfonamido)-4-mercaptopyrrolidine Hydrochloride] | 2.2 | 4000 | 
6 | O=C(NCCN1C(=O)c2ccccc2C1=O)N1C[C@H](NS(=O)(=O)c2ccc(Oc3ccccc3)cc2)[C@@H](S)C1 (racemic) [Example 2, (±)-N-(2-Phthalimidoethylaminocarbonyl)-trans-3-(4-phenoxybenzenesulfonamido)-4-mercaptopyrrolidine] | 35 |  | > 12500
7 | O=S(=O)(N[C@H]1CNC[C@@H]1S)c1ccc(Oc2ccccc2)cc1 (racemic) [Example 3, (±)-trans-3-(4-Phenoxybenzenesulfonamido)-4-mercaptopyrrolidine Hydrochloride] | 27 |  | > 25000
8 | O=C(OCc1ccccc1)N1C[C@H](NS(=O)(=O)c2ccc(-c3ccccc3)cc2)[C@@H](S)C1 (racemic) [Example 6, (±)-N-(Benzyloxycarbonyl)-trans-3-(4-phenylbenzenesulfonamido)-4-mercaptopyrrolidine] | 78 |  | > 12500
9 | CC(=O)NCCCCCC(=O)N1C[C@H](NS(=O)(=O)c2ccc(Oc3ccccc3)cc2)[C@@H](S)C1 (racemic) [Example 8, (±)-N-(6-Acetamidohexanoyl)-trans-3-(4-phenoxy-benzenesulfonamido)-4-mercaptopyrrolidine] | 3.8 | 3000 | 
